Data: patent US20120252721A1 (priority 2011, published 2012)

Key:
[1] = test system: HCV genotype 3a NS5A within the 1b-replicon; test: Luciferase replicon assay, NS5A-intergenotypic stable cell line genotype 3a; type: cell-based; conditions: Hepatitis C virus, read-out: EC50 3a
How it was run: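 Stable cured-Huh7 lines carry a 1b luciferase replicon with genotype 3a or 4a NS5A, selected with G418. Cells were treated with ten 5-fold compound dilutions for 72 h at 37 °C. Replication was read as luciferase signal, and EC50 was fitted from dose-response curves.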

[2] = test system: HCV genotype 1b replicon, NS5B M423T; test: Luciferase replicon transient transfection assay, genotype 1b NS5B M423T; type: cell-based, hepatitis C virus
Experimental: The luciferase replicon transient transfection assay measures the ability of a test compound to inhibit the replication of a transiently-transfected HCV luciferase-bearing wild-type or mutant replicon in cured human hepatoma cells (Huh7.5). The inhibition of HCV replication was measured by quantification of luciferase protein expression. This assay has been validated using a panel of genotype 1a and 1b replicons bearing mutations known to be associated with resistance to BMS-790052. Briefly, subconfluent Huh7.5 cells were electroporated with 10 μg of wild-type or mutant luciferase-bearing HCV replicon RNA. The cells were then seeded in 96-well opaque white plates at 3×10^4 cells/well in 150 μL/well and incubated for 4 hrs at 37° C./5% CO2. […] The plates were agitated on a rotating platform at room temperature for 3 min and read in a Victor^3V microplate reader (Perkin-Elmer) using a 700 nm cut-off filter with a 1 sec read time. EC50 values were calculated from dose response curves from the resulting best-fit equations determined by Microsoft Excel and XLfit 4.1 software.
To determine the replication capacity of each mutant relative to the wild-type parental replicon, transfected cells were plated on two plates and were not treated with compound. Luciferase activity was measured at time points of 4 hrs and 4 days after plating for each replicon. […]

Row | SMILES | EC50 [1] [nM] | EC50 ([2]; Hepatitis C virus, genotype 1b, NS5B mutation M423T (confers resistance to Thiophene)) [nM] | Ratio ([2]; {})
1 | COC(=O)N[C@H](C(=O)N1CCC[C@H]1c1ncc(-c2ccc(-c3csc4c(-c5cnc([C@@H]6CCCN6C(=O)[C@@H](NC(=O)OC)C(C)C)[nH]5)csc34)cc2)[nH]1)C(C)C [Compound A15, [(S)-1-((S)-2-{4-[4-(6-{2-[(S)-1-((S)-2-methoxycarbonylamino-3-methyl-butyryl)-pyrrolidin-2-yl]-3H-imidazol-4-yl}-thieno[3,2-b]thiophen-3-yl)-phenyl]-1H-imidazol-2-yl}-pyrrolidine-1-carbonyl)-2-methyl-propyl]-carbamic acid methyl ester] | 0.1 to 1 |  | 
2 | COC(=O)N[C@H](C(=O)N1CCC[C@H]1c1nc2cc(-c3csc4c(-c5ccc(-c6cnc([C@@H]7CCCN7C(=O)[C@H](NC(=O)OC)c7ccccc7)[nH]6)cc5)csc34)ccc2[nH]1)C(C)C [Compound A169, [(S)-1-((S)-2-{6-[6-(4-{(S)-2-[1-((R)-2-methoxycarbonylamino-2-phenyl-acetyl)-pyrrolidin-2-yl]-3H-imidazol-4-yl}-phenyl)-thieno[3,2-b]thiophen-3-yl]-1H-benzoimidazol-2-yl}-pyrrolidine-1-carbonyl)-2-methyl-propyl]-carbamic acid methyl ester] |  | 0.002 | 1.22
